Calls of active or inactive are those of the source. The calls are words filed in the database; no cut-off is given here.
How the values were obtained:
Plasmodium berghei [1] = test: Antimalarial activity as mean survival days against Plasmodium berghei NK65 infected ICR mice (Mus musculus) at 20 mg/kg/day intraperitoneal dose; assay type: functional
Plasmodium berghei [2] = test: Antimalarial activity as reduced parasitaemia against Plasmodium berghei NK65 infected ICR mice (Mus musculus) at 20 mg/kg/day intraperitoneal dose at day 4; assay type: functional; set-up: scale not given: the % may be the effect or the level left
Plasmodium berghei [3] = test: Antimalarial activity as mean survival days against Plasmodium berghei NK65 infected ICR mice (Mus musculus) at 100 mg/kg/day peroral dose at day 4; assay type: functional; details: route oral
Plasmodium berghei [4] = test: Antimalarial activity as reduced parasitaemia at day 4 against Plasmodium berghei NK65 infected ICR mice (Mus musculus) at 100 mg/kg/day peroral dose for 3 days; assay type: functional; set-up: scale not given: the % may be the effect or the level left; details: route oral
Mus musculus = test: Toxicity in Plasmodium berghei NK65-infected ICR mice (Mus musculus) assessed as death at 20 mg/kg/day, intraperitoneally administered 24 hrs after infection for 3 consecutive days measured 4 days postinfection; assay type: organism-based; set-up: route intraperitoneal; details: in vivo, ip, 96 h
Plasmodium berghei [5] = test: Antimalarial activity as mean survival days against Plasmodium berghei NK65 infected ICR mice (Mus musculus) at 10 mg/kg/day intraperitoneal dose 24 hrs post infection; assay type: functional
Plasmodium berghei [6] = test: Antimalarial activity as mean survival days against Plasmodium berghei NK65 infected ICR mice (Mus musculus) at 30 mg/kg/day peroral dose; assay type: functional; details: route oral
Plasmodium berghei [7] = test: Antimalarial activity at day 4 against Plasmodium berghei NK65 infected ICR mice (Mus musculus) as reduced parasitaemia at 10 mg/kg/day intraperitoneal dose 24 hrs post infection; assay type: functional; set-up: scale not given: the % may be the effect or the level left
Plasmodium berghei [8] = test: Antimalarial activity as reduced parasitaemia against Plasmodium berghei NK65 infected ICR mice (Mus musculus) at 30 mg/kg/day peroral dose at day 4; assay type: functional; set-up: scale not given: the % may be the effect or the level left; details: route oral
[9] = Apparent volume of distribution in Wistar rat at 4 mg/kg, iv administered as single dose; assay type: ADME, organism-based; set-up: dose 4 mg/kg, route intravenous; details: in vivo, read-out: Vz
Plasmodium berghei [10] = test: Antimalarial activity as reduced parasitaemia against Plasmodium berghei NK65 infected ICR mice (Mus musculus) at 4 mg/kg peroral dose at day 4; assay type: functional; set-up: scale not given: the % may be the effect or the level left; details: route oral
[11] = Plasma concentration in fasted Wistar rat at 30 mg/kg/day, po after 25 hrs by HPLC; assay type: ADME, organism-based; set-up: route oral
Plasmodium berghei [12] = test: (§1) Antimalarial activity as reduced parasitaemia at day 6 against Plasmodium berghei NK65 infected ICR mice (Mus musculus) at 30 mg/kg/day peroral dose for 3 days; assay type: functional, organism-based
[13] = Oral bioavailability in Wistar rat at 4 mg/kg administered as single dose; assay type: ADME, organism-based; details: in vivo
[14] = Plasma concentration in Wistar rat at 4 mg/kg, iv administered as single dose after 10 mins by HPLC; assay type: ADME, organism-based; set-up: dose 4 mg/kg, route intravenous
[15] = Plasma concentration in fasted Wistar rat at 30 mg/kg/day, po after 49 hrs by HPLC; assay type: ADME, organism-based; set-up: route oral
[16] = Plasma concentration in fasted Wistar rat at 4 mg/kg, po administered as single dose after 2 hrs by HPLC; assay type: ADME, organism-based; set-up: dose 4 mg/kg, route oral
Plasmodium falciparum = test: Antimalarial activity against chloroquine and pyrimethamine-resistant Plasmodium falciparum K1; assay type: functional, organism-based
[17] = Plasma concentration in Wistar rat at 4 mg/kg, iv administered as single dose after 4 hrs by HPLC; assay type: ADME, organism-based; set-up: dose 4 mg/kg, route intravenous
[18] = Plasma concentration in fasted Wistar rat at 30 mg/kg, po administered as single dose after 1 hr by HPLC; assay type: ADME, organism-based; set-up: dose 30 mg/kg, route oral
[19] = Selectivity index, ratio of IC50 for rat L6 cells to IC50 for chloroquine and pyrimethamine-resistant Plasmodium falciparum K1; assay type: toxicity, cell-based; details: read-out: Ratio IC50
Plasmodium berghei [20] = test: Antimalarial activity as reduced parasitaemia against Plasmodium berghei NK65 infected ICR mice (Mus musculus) at 30 mg/kg peroral dose at day 4; assay type: functional; set-up: scale not given: the % may be the effect or the level left; details: route oral
[21] = Tmax in Wistar rat at 30 mg/kg, po administered as single dose; assay type: ADME, organism-based; set-up: dose 30 mg/kg, route oral; details: in vivo
[22] = Plasma concentration in fasted Wistar rat at 4 mg/kg, po administered as single dose after 1 hr by HPLC; assay type: ADME, organism-based; set-up: dose 4 mg/kg, route oral
[23] = Plasma concentration in fasted Wistar rat at 30 mg/kg, po administered as single dose after 2 hrs by HPLC; assay type: ADME, organism-based; set-up: dose 30 mg/kg, route oral
[24] = Clearance in Wistar rat at 4 mg/kg, iv administered as single dose; assay type: ADME, organism-based; set-up: dose 4 mg/kg, route intravenous; details: in vivo
Rattus norvegicus [25] = test: Apparent volume of distribution in Wistar rat at 4 mg/kg, po administered as single dose; assay type: ADME, organism-based; set-up: dose 4 mg/kg, route oral; details: in vivo
Plasmodium berghei [26] = test: Antimalarial activity recurrence of parasitaemia in Plasmodium berghei NK65 infected ICR mice (Mus musculus) at 4 mg/kg/day intravenous dose for 3 days; assay type: functional, organism-based
Plasmodium berghei [27] = test: Antimalarial activity as reduced parasitaemia at day 7 against Plasmodium berghei NK65 infected ICR mice (Mus musculus) at 30 mg/kg/day peroral dose for 3 days; assay type: functional, organism-based
[28] = Clearance in Wistar rat at 30 mg/kg, po administered as single dose; assay type: ADME, organism-based; set-up: dose 30 mg/kg, route oral; details: in vivo
Plasmodium berghei [29] = test: as §1; assay type: functional; set-up: scale not given: the % may be the effect or the level left; details: route oral
[30] = Half life in Wistar rat at 4 mg/kg, iv administered as single dose; assay type: ADME, organism-based; set-up: dose 4 mg/kg, route intravenous; details: in vivo
Rattus norvegicus [31] = test: Apparent volume of distribution in Wistar rat at 30 mg/kg, po administered as single dose; assay type: ADME, organism-based; set-up: dose 30 mg/kg, route oral; details: in vivo
[32] = Tmax in Wistar rat at 4 mg/kg, po administered as single dose; assay type: ADME, organism-based; set-up: dose 4 mg/kg, route oral; details: in vivo
Plasmodium berghei [33] = test: Antimalarial activity as reduced parasitaemia against Plasmodium berghei NK65 infected ICR mice (Mus musculus) at 4 mg/kg intravenous dose at day 4; assay type: functional; set-up: scale not given: the % may be the effect or the level left
[34] = Clearance in Wistar rat at 4 mg/kg, po administered as single dose; assay type: ADME, organism-based; set-up: dose 4 mg/kg, route oral; details: in vivo
Plasmodium berghei [35] = test: Antimalarial activity as recurrence of parasitaemia at day 5 in Plasmodium berghei NK65 infected ICR mice (Mus musculus) at 4 mg/kg/day peroral dose for 3 days; assay type: functional, organism-based
[36] = Half life in Wistar rat at 4 mg/kg, po administered as single dose; assay type: ADME, organism-based; set-up: dose 4 mg/kg, route oral; details: in vivo
[37] = Oral bioavailability in Wistar rat at 30 mg/kg administered as single dose; assay type: ADME, organism-based; details: in vivo
[38] = Half life in Wistar rat at 30 mg/kg, po administered as single dose; assay type: ADME, organism-based; set-up: dose 30 mg/kg, route oral; details: in vivo
[39] = Plasma concentration in fasted Wistar rat at 30 mg/kg, po after 1 hr by HPLC; assay type: ADME, organism-based; set-up: dose 30 mg/kg, route oral

CN(C)c1ccc2nc3ccc(N4CCCC4)cc3[o+]c2c1.[Cl-] showed an MSD (Plasmodium berghei [1]) of 7.8 days, an Activity (Plasmodium berghei [2]) of 95.7% and an MSD (Plasmodium berghei [3]) of 10 days. It also gave an Activity (Plasmodium berghei [4]) of 90.3%.
[Cl-].c1cc2nc3ccc(N4CCCCC4)cc3[o+]c2cc1N1CCCCC1 showed an MSD (Plasmodium berghei [1]) of 16.8 days, an Activity (Plasmodium berghei [2]) of 97.2% and an MSD (Plasmodium berghei [3]) of 11.3 days. For the same compound, the Activity (Plasmodium berghei [4]) was 99.8%.
With CCCCCCN(CCCCCC)c1ccc2nc3ccc(N4CCCCC4)cc3[o+]c2c1.[Cl-] the Activity (Mus musculus) was “Toxic”.
CCN(CC)c1ccc2nc3ccc(N4CCSCC4)cc3[o+]c2c1.[Cl-] gave an MSD (Plasmodium berghei [1]) of 11.5 days, an Activity (Plasmodium berghei [2]) of 99.2% and an MSD (Plasmodium berghei [3]) of 6.3 days. For the same compound, the Activity (Plasmodium berghei [4]) was 66.3%.
In the case of CCCN(CCC)c1ccc2nc3ccc(N4CCCC4)cc3[o+]c2c1.[Cl-], the MSD (Plasmodium berghei [1]) is reported as 14.8 days, the Activity (Plasmodium berghei [2]) is reported as 95.2% and the MSD (Plasmodium berghei [3]) is reported as 10 days. It also gave an Activity (Plasmodium berghei [4]) of 99.6%.
With CCCCN(CCCC)c1ccc2nc3ccc(N4CCCCC4)cc3[o+]c2c1.[Cl-] the Activity (Mus musculus) was “Toxic”.
[Cl-].c1cc2nc3ccc(N4CCCC4)cc3[o+]c2cc1N1CCCC1 gave an MSD (Plasmodium berghei [1]) of 8.3 days, an Activity (Plasmodium berghei [2]) of 95.4% and an MSD (Plasmodium berghei [3]) of 8.3 days. The Activity (Plasmodium berghei [4]) was 95.3%.
With CCN(CC)CCCC(C)Nc1ccnc2cc(Cl)ccc12 (configuration not stated) [CHLOROQUINE] the MSD (Plasmodium berghei [5]) was 22.7 days, the MSD (Plasmodium berghei [6]) was 9.6 days and the Activity (Plasmodium berghei [7]) was 90.6%. It also gave an Activity (Plasmodium berghei [8]) of 98.4%.
CN(C)c1ccc2nc3ccc(N4CCSCC4)cc3[o+]c2c1.[Cl-] showed an MSD (Plasmodium berghei [1]) of 9.8 days, an Activity (Plasmodium berghei [2]) of 94.5% and an MSD (Plasmodium berghei [3]) of 11.3 days. The Activity (Plasmodium berghei [4]) was 84.9%.
Compound CCN(CC)c1ccc2nc3ccc(N4CCOCC4)cc3[o+]c2c1.[Cl-] has an MSD (Plasmodium berghei [1]) of 12.3 days, an Activity (Plasmodium berghei [2]) of 90% and an MSD (Plasmodium berghei [3]) of 13 days. The Activity (Plasmodium berghei [4]) was 96.3%.
In the case of CCCCCN(CCCCC)c1ccc2nc3ccc(N4CCCCC4)cc3[o+]c2c1.[Cl-], the Activity (Mus musculus) is reported as “Toxic”.
Work on CCCN(CCC)c1ccc2nc3ccc(N4CCSCC4)cc3[o+]c2c1.[Cl-] yielded an MSD (Plasmodium berghei [1]) of 12.5 days, an Activity (Plasmodium berghei [2]) of 96.5% and an MSD (Plasmodium berghei [3]) of 7 days. For the same compound, the Activity (Plasmodium berghei [4]) was 68.9%.
With CN(C)c1ccc2nc3ccc(N4CCCCC4)cc3[o+]c2c1.[Cl-] the MSD (Plasmodium berghei [1]) was 15.5 days, the Activity (Plasmodium berghei [2]) was 96.4% and the MSD (Plasmodium berghei [3]) was 7.6 days. It also gave an Activity (Plasmodium berghei [4]) of 97.8%.
Compound CCN(CC)c1ccc2nc3ccc(N4CCCCC4)cc3[o+]c2c1.[Cl-] has a Vd [9] of 35.3 L/kg, an Activity (Plasmodium berghei [10]) of 76% and a concentration at 25 h [11] of 420 ng/mL. The Activity (Plasmodium berghei [12]) was “Active”, the MSD (Plasmodium berghei [1]) was 23.3 days and the bioavailability [13] was 89.6%. It also gave a concentration at 10 min [14] of 468 ng/mL, a concentration at 49 h [15] of 583 ng/mL and a concentration at 2 h [16] of 158 ng/mL. The IC50 (Plasmodium falciparum) was 2.69 nM, the concentration at 4 h [17] was 96.6 ng/mL and the concentration at 1 h [18] was 658 ng/mL. For the same compound, the selectivity ratio [19] was 2390, the Activity (Plasmodium berghei [2]) was 95.9% and the Activity (Plasmodium berghei [20]) was 96.2%. It also gave a Tmax [21] of 58.8 min, a concentration at 1 h [22] of 658 ng/mL and a concentration at 2 h [23] of 158 ng/mL. For the same compound, the clearance [24] was 44.5 mL/min/kg, the Vz (Rattus norvegicus [25]) was 36.9 L/kg and the Activity (Plasmodium berghei [26]) was “inactive”. The Activity (Plasmodium berghei [27]) was “inactive”, the CL/F [28] was 43.3 mL/min/kg and the Activity (Plasmodium berghei [29]) was 90%. The half-life [30] was 529 min, the Vz (Rattus norvegicus [31]) was 38.5 L/kg and the MSD (Plasmodium berghei [3]) was 12.7 days. The Activity (Plasmodium berghei [4]) was 97.8%, the Tmax [32] was 59.4 min and the Activity (Plasmodium berghei [33]) was 85.9%. The CL/F [34] was 43.3 mL/min/kg, the Activity (Plasmodium berghei [35]) was “inactive” and the half-life [36] was 590 min. The bioavailability [37] was 60.7%, the half-life [38] was 618 min and the concentration at 1 h [39] was 299 ng/mL.
With CCCN(CCC)c1ccc2nc3ccc(N4CCCCC4)cc3[o+]c2c1.[Cl-] the MSD (Plasmodium berghei [1]) was 12.3 days, the Activity (Plasmodium berghei [2]) was 93.2% and the MSD (Plasmodium berghei [3]) was 10.3 days. The Activity (Plasmodium berghei [4]) was 97.6%.
For CCCN(CCC)c1ccc2nc3ccc(N4CCOCC4)cc3[o+]c2c1.[Cl-], the MSD (Plasmodium berghei [1]) was 18 days, the Activity (Plasmodium berghei [2]) was 95.7% and the MSD (Plasmodium berghei [3]) was 10 days. For the same compound, the Activity (Plasmodium berghei [4]) was 99.5%.
